# Assay results reported in US20160044927A1, “Disinfectant Formulation Comprising Calcium Hydroxide and Sodium Hypochlorite” (priority 2012, published 2016).
# Read-outs that look alike come from different tables or passages of the source.
# Key:
# Aspergillus niger(#9642) = settings: 24 hr, very spotty growth, not yet a confluence lawn, other replicates patchy lawn
# HSV-1 = settings: for Log TCID50/100 ul: preliminary
# Method: Experiments: 10 μL of virus stock was mixed with 100% saturated Ca(OH)2 (Final Ca(OH)2 concentration 99%) and incubated for different lengths of time. Then the mixture was diluted and the viable number of virus (Log TCID) was measured.
# 99% saturated Ca(OH)2 was used to treat 2 viruses using different incubation times (5 min to 1 hr).
Structure (SMILES),Zone of Inhibition (Aspergillus niger(#9642); paste volume 0.2 ml),Zone of Inhibition (Aspergillus niger(#9642); paste volume 0.3 ml),"log kill (HSV-1; HSV-1, in 1 hr) [log]","Log TCID50/100 ul (HSV-1; HSV-1, incubation 0 min) [Log TCID50/100 ul]","Log TCID50/100 ul (HSV-1; HSV-1, incubation 5 min) [Log TCID50/100 ul]","Log TCID50/100 ul (HSV-1; HSV-1, incubation 10 min) [Log TCID50/100 ul]","Log TCID50/100 ul (HSV-1; HSV-1, incubation 15 min) [Log TCID50/100 ul]","Log TCID50/100 ul (HSV-1; HSV-1, incubation 30 min) [Log TCID50/100 ul]","Log TCID50/100 ul (HSV-1; HSV-1, incubation 60 min) [Log TCID50/100 ul]"
"[Ca+2].[OH-].[OH-] [Ca(OH)2 paste, calcium hydroxide]","—, ~35≠, — mm","—, ~34≠, — mm",,,,,,,
"[Ca+2].[OH-].[OH-] [99% saturated Ca(OH)2, calcium hydroxide]",,,> 3.5,6.5,6,5.5,3.5,3,<3
